Measurements reported in patent publication US12162895B2, “DNA polymerase theta inhibitor for treatment of cancer” (Breakpoint Therapeutics GmbH, priority 2023, dated 2024).
pIC50: −log10 of the molar value.

Target: T1, Polθ (Homo sapiens, UniProt O75417)
T1 construct: a truncated Pole protein (Pole-Hel containing the helicase domain (67-894))
Assay: Polθ ATPase assay (Biological Assay 1, ADP-Glo luminescence)
Type: biochemical
Settings: truncated Polθ protein containing the helicase domain (67-894), ssDNA oligo, ATP, in vitro
Experimental: The Pole ATPase assay was used to evaluate inhibitors of Pole ATPase activity, in vitro. Experiments were performed using a truncated Pole protein (Pole-Hel containing the helicase domain (67-894), ATP and a DNA single strand Oligo (5′-CTGTCCTGCATGATG-3′) in the Pole assay buffer (20 mM Tris-HCl (pH 8.8), MgCl2 5 mM, tween20 0.01%, NP40 0.01%, BSA 0.01%, DTT 1 mM). 2 μL of assay buffer containing Pole-Hel protein (0.5 nM) and DNA substrate (500 nM) was transferred into assay ready plates, containing 0.04 μL of compounds diluted in DMSO. After a 30 minutes incubation at 23° C. in the dark, the reaction was triggered by adding 2 μL of ATP (60 μM), in assay buffer. After 60 minutes at 23° C., 4 μl of ADP-Glo™ Reagent (Glo 1) was added followed by 40 minutes of incubation, then 8 μl of ADP-Glo™ kinase Detection Reagent (Glo 2) followed by 60 minutes of incubation at 23° C. Luminescence was then measured using Tecan F200 infinite plate reader. Raw data were analysed using GeneData to generate IC50 values.
The Pole ATPase assay described in Biological Assay 1 above was used to evaluate inhibitors of Pole ATPase activity for the compounds described in the Experimental Part B above, in vitro.

T1 sequence (O75417 67-894): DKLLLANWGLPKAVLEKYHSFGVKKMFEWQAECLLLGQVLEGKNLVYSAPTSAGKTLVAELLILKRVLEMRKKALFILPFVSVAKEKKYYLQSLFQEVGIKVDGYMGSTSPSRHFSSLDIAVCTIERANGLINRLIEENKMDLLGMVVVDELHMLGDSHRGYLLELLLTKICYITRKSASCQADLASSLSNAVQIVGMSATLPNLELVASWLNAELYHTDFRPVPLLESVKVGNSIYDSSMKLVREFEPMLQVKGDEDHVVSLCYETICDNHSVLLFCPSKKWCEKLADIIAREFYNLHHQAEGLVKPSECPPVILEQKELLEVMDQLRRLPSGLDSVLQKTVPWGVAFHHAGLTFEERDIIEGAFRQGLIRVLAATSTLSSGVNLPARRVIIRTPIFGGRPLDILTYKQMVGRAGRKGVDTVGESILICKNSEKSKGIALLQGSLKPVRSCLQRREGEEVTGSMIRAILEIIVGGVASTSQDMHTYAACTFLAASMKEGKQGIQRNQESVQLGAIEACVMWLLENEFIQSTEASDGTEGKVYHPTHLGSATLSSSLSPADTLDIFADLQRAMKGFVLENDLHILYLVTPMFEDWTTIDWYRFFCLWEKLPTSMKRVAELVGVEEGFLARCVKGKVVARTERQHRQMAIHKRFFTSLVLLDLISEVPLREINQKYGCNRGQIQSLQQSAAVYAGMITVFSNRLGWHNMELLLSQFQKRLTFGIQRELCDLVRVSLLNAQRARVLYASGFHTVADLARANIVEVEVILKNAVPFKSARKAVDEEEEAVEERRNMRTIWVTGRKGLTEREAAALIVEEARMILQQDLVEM

5′-methoxy-2′,6-dimethyl-N-[5-(morpholin-4-yl)-[1,3]thiazolo[5,4-d]pyrimidin-2-yl]-[4,4′-bipyridine]-3-carboxamide [Example 92]
pIC50: > 7.00
